Experimental data from patent US20130096170A1 (priority 2011, published 2013).
Read-outs that look alike come from different tables or passages of the source.

Columns and labels:
[1] = tested on: pediatric subjects 12 to <24 months; conditions: in vivo
[2] = for CL, Predicted Typical Value / Volume of Distribution, Predicted Typical Value / Weight-Adjusted CL, Predicted Typical Value / Weight-Adjusted V, Predicted Typical Value: model-predicted
[3] = tested on: neonates ≥28 to ≤44 weeks gestational age
[4] = human, in vivo
[5] = clinical; conditions: human, in vivo
[6] = clinical; conditions: human, in vivo; remark: listed apart in the source
[7] = cited from earlier work
[8] = clinical; conditions: human, in vivo; remark: listed apart in the source
[9] = human, in vivo; remark: listed apart in the source
[10] = in vivo
[11] = human, in vivo; remark: listed apart in the source
[12] = tested on: pediatric subjects 2 to <17 years
[13] = final population PK model, Examples 5, 3, 1 and 7
[14] = age Group I, dose level 2 (Dex 0.1), N = 6
[15] = Group I, Dose Level 1, LD 0.25/CD 0.2 μg/kg/hr, N = 8, safety population
[16] = Group I, Dose Level 2, LD 0.50/CD 0.4 μg/kg/hr, N = 6, safety population
[17] = Group I, Dose Level 3, LD 1.00/CD 0.7 μg/kg/hr, N = 6, safety population
[18] = Group I, Dose Level 4, LD 1.00/CD 2.00 μg/kg/hr, N = 6, safety population
[19] = Group II, Dose Level 1, LD 0.25/CD 0.2 μg/kg/hr, N = 8, safety population
[20] = Group II, Dose Level 2, LD 0.50/CD 0.4 μg/kg/hr, N = 8, safety population
[21] = Group II, Dose Level 3, LD 1.00/CD 0.7 μg/kg/hr, N = 9, safety population
[22] = Group II, Dose Level 4, LD 1.00/CD 2.00 μg/kg/hr, N = 8, safety population

## Cc1cccc([C@H](C)c2cnc[nH]2)c1C [dexmedetomidine]
[1]; human
  subjects with treatment-emergent adverse events: 20.0%
[1]
  safety and tolerability: safe and well tolerated
[2]; final population PK model
  Magnitude of Interindividual Variability in Vc, final estimate: 53.76 % CV
[2]; [13]
  Exponent for power function effect of age on Q (population mean): −0.342
  Exponent for power function effect of age on Vp (population mean): −0.280
  Inter-compartmental CL (Q) (population mean): 63.5 L/h
  Vc, volume of the central compartment (population mean): 8.49 L
  Vp, volume of the peripheral compartment (population mean): 14.7 L
[2]; final population PK model, cell spans CL rows
  Magnitude of Interindividual Variability in CL, final estimate: 37.01 % CV
[2]; final population PK model, cell spans Q rows
  Magnitude of Interindividual Variability in Q, final estimate: 161.25 % CV
[2]; final population PK model, cell spans Vp rows
  Magnitude of Interindividual Variability in Vp, final estimate: 51.19 % CV
[2]; 1 month-<6 months
  CL, Predicted Typical Value: 7.51 L/h
  Volume of Distribution, Predicted Typical Value: 18.75 L
  Weight-Adjusted CL, Predicted Typical Value: 20.9 mL/min/kg
  Weight-Adjusted V, Predicted Typical Value: 3.133 L/kg
[2]; 2 y-<6 y
  CL, Predicted Typical Value: 14.01 L/h
  Volume of Distribution, Predicted Typical Value: 28.09 L
  Weight-Adjusted CL, Predicted Typical Value: 16.98 mL/min/kg
  Weight-Adjusted V, Predicted Typical Value: 2.043 L/kg
[2]; 6 months-<12 months
  CL, Predicted Typical Value: 8.69 L/h
  Volume of Distribution, Predicted Typical Value: 19.95 L
  Weight-Adjusted CL, Predicted Typical Value: 19.92 mL/min/kg
  Weight-Adjusted V, Predicted Typical Value: 2.742 L/kg
[2]; 6 y-<17 y
  CL, Predicted Typical Value: 25.27 L/h
  Volume of Distribution, Predicted Typical Value: 52.97 L
  Weight-Adjusted CL, Predicted Typical Value: 14 mL/min/kg
  Weight-Adjusted V, Predicted Typical Value: 1.754 L/kg
[2]; 12 months-<24 months
  CL, Predicted Typical Value: 11.12 L/h
  Volume of Distribution, Predicted Typical Value: 23.85 L
  Weight-Adjusted CL, Predicted Typical Value: 18.35 mL/min/kg
  Weight-Adjusted V, Predicted Typical Value: 2.361 L/kg
[2]; 28 weeks GA-<1 month
  CL, Predicted Typical Value: 2.69 L/h
  Volume of Distribution, Predicted Typical Value: 16.21 L
  Weight-Adjusted CL, Predicted Typical Value: 15.6 mL/min/kg
  Weight-Adjusted V, Predicted Typical Value: 5.618 L/kg
[3]; [14]
  TEAE: Anger, subjects: 1 (16.7%)
  TEAE: Blood bilirubin unconjugated increased, subjects: 1 (16.7%)
  TEAE: Bradycardia, subjects: 1 (16.7%)
  TEAE: Cardiac disorders, subjects: 1 (16.7%)
  TEAE: Cardio-respiratory arrest, subjects: 1 (16.7%)
  TEAE: General disorders and administration site conditions, subjects: 2 (33.3%)
  TEAE: Haematuria, subjects: 1 (16.7%)
  TEAE: Hepatobiliary disorders, subjects: 1 (16.7%)
  TEAE: Hyperbilirubinaemia, subjects: 1 (16.7%)
  TEAE: Hyperglycaemia, subjects: 1 (16.7%)
  TEAE: Hypocalcaemia, subjects: 1 (16.7%)
  TEAE: Hypoproteinaemia, subjects: 1 (16.7%)
  TEAE: Infections and infestations, subjects: 1 (16.7%)
  TEAE: Infusion site extravasation, subjects: 1 (16.7%)
  TEAE: Investigations, subjects: 2 (33.3%)
  TEAE: Oedema, subjects: 1 (16.7%)
  TEAE: Oxygen saturation decreased, subjects: 1 (16.7%)
  TEAE: Psychiatric disorders, subjects: 1 (16.7%)
  TEAE: Renal and urinary disorders, subjects: 1 (16.7%)
  TEAE: Sepsis, subjects: 1 (16.7%)
[3]; human, in vivo
  TEAE: Metabolism and nutrition disorders, subjects: 3 (50.0%)
  TEAE: Number of Events: 18
  patients with adverse events: 67%
  subjects with treatment-emergent adverse effects assessed as related to treatment: 2 subjects
[3]; in vivo
  safety and tolerability: safe and well tolerated
  severe treatment-emergent adverse effects: no severe
[4]
  AUC (0-Infinity)Dose: 2102.55 (n = 2) (pg/mL)hr/μg
  AUC (0-Last): 813.26 (pg/mL)hr
  Vdw: 3.47 (n = 2) L/kg
  dose-adjusted AUC (0-Infinity), additional cohort versus age group II: 4.6 times higher
  t1/2: 8 h
[5]; CL, Population Mean
  clearance: 308 mL/min
[5]; CL, model value
  clearance: 142 mL/min
[5]; Weight-Adjusted CL, Geo. Mean of individual Bayesian estimates
  clearance: 16.5 mL/min/kg
[5]; Weight-Adjusted CL, Geometric Mean
  clearance: 16.5 mL/min/kg
[5]; terminal elimination (β) half-life
  half-life: 1.6 h
[6]; after the start of the maintenance infusion
  Tmax: 0.68 h
[6]; before the end of the loading dose
  Tmax: ~0.08 h
[6]; clearance
  clearance: ~95 mL/min
[6]; half-life
  half-life: ~2 h
[6]; t1/2, Mean
  half-life: 1.96 h
[6]; weight adjusted CL
  clearance: ~10 mL/min/kg
[6]; weight adjusted Vd
  Vd: ~1.6 L/kg
[7]
  pKa: 7
  solubility in water: freely soluble in water
[7]; study drug as supplied
  pH of the isotonic solution: 4.5
[8]; 0.05 ug/kg, CLw (clearance)
  clearance: 6.83 mL/min/kg
[8]; AUC (0-Last)
  AUC(0-t): 0.708 ng·h/mL
[8]; CLw (weight adjusted clearance)
  clearance: 4.83 mL/min/kg
[8]; Vss
  Vd: 6.25 L
[8]; elimination t1/2
  half-life: 4.77 h
[8]; t1/2
  half-life: 8.32 h
[9]
  t1/2, Mean: 2.260 h
[10]; human
  power-model slope (95% confidence interval) for AUC0-inf: 1.263 (0.820, 1.706)
  power-model slope (95% confidence interval) for Cmax: 0.898 (0.652, 1.143)
[10]
  pharmacokinetic linearity / dose proportionality: linearity and dose proportionality
[11]
  CL, predicted: 47.8 L/h
  Exponent of power relationship between Q and age, Population Mean: −0.509
  IIV in Q: 117 % CV
  Proportional shift in allometric exponent for Vc for neonates, Population Mean: 0.513
  Q, model value: 68.21 L/h
  Slope of linear age effect on Vp, Population Mean: −1.43 L/y
  Vc, model value: 6.22 L
  Vp, model value: 13.21 L
  interindividual variability in CL, Vc, and Vp: 35-55 % CV
  terminal elimination (β) half-life: 1.8 h
  unexplained interindividual variability (IIV) in Q: 163 % CV
  volume of distribution, predicted: 114.6 L
[12]; [15]
  Drug-related TEAE: Bradycardia: 0 n (%)
  Drug-related TEAE: Hypertension: 0 n (%)
  Drug-related TEAE: Hypotension: 0 n (%)
  Drug-related TEAE: Sedation: 0 n (%)
  Number of Drug-related TEAE: 0
  Subjects with at least 1 Drug-Related TEAE: 0 n (%)
[12]; [16]
  Drug-related TEAE: Bradycardia: 0 n (%)
  Drug-related TEAE: Hypertension: 0 n (%)
  Drug-related TEAE: Hypotension: 0 n (%)
  Drug-related TEAE: Sedation: 0 n (%)
  Number of Drug-related TEAE: 0
  Subjects with at least 1 Drug-Related TEAE: 0 n (%)
[12]; [17]
  Drug-related TEAE: Bradycardia: 1 (16.7) n (%)
  Drug-related TEAE: Hypertension: 1 (16.7) n (%)
  Drug-related TEAE: Hypotension: 0 n (%)
  Drug-related TEAE: Sedation: 0 n (%)
  Number of Drug-related TEAE: 2
  Subjects with at least 1 Drug-Related TEAE: 1 (16.7) n (%)
[12]; [18]
  Drug-related TEAE: Bradycardia: 1 (16.7) n (%)
  Drug-related TEAE: Hypertension: 0 n (%)
  Drug-related TEAE: Hypotension: 1 (16.7) n (%)
  Drug-related TEAE: Sedation: 2 (33.3) n (%)
  Number of Drug-related TEAE: 4
  Subjects with at least 1 Drug-Related TEAE: 4 (66.7) n (%)
[12]; [19]
  Drug-related TEAE: Bradycardia: 0 n (%)
  Drug-related TEAE: Chills: 0 n (%)
  Drug-related TEAE: Hypertension: 0 n (%)
  Drug-related TEAE: Sedation: 0 n (%)
  Number of Drug-related TEAE: 0
  Subjects with at least 1 Drug-Related TEAE: 0 n (%)
[12]; [20]
  Drug-related TEAE: Bradycardia: 0 n (%)
  Drug-related TEAE: Chills: 0 n (%)
  Drug-related TEAE: Hypertension: 0 n (%)
  Drug-related TEAE: Sedation: 0 n (%)
  Number of Drug-related TEAE: 0
  Subjects with at least 1 Drug-Related TEAE: 0 n (%)
[12]; [21]
  Drug-related TEAE: Bradycardia: 1 (11.1) n (%)
  Drug-related TEAE: Chills: 1 (11.1) n (%)
  Drug-related TEAE: Hypertension: 1 (11.1) n (%)
  Drug-related TEAE: Sedation: 0 n (%)
  Number of Drug-related TEAE: 3
  Subjects with at least 1 Drug-Related TEAE: 2 (22.2) n (%)
[12]; [22]
  Drug-related TEAE: Bradycardia: 0 n (%)
  Drug-related TEAE: Chills: 0 n (%)
  Drug-related TEAE: Hypertension: 3 (37.5) n (%)
  Drug-related TEAE: Sedation: 1 (12.5) n (%)
  Number of Drug-related TEAE: 4
  Subjects with at least 1 Drug-Related TEAE: 4 (50.0) n (%)
[12]; human, in vivo
  treatment-related TEAE: chills: 1 subjects
  treatment-related TEAE: hypotension: 1 subjects
[12]; safety population
  deaths: No deaths
